Test results from patent US20150064221A1, “COMPOUNDS HAVING IMMUNOMUDULATOR ACTIVITY” (priority 2012, published 2015).

What was measured:
[1] = system: RIN-m5F and MIN6 insulinoma cell lines; assay: Cytokine-stimulated insulinoma cell lines; assay type: cell-based
Protocol: Both results were determined 48 hours post stimulation, and VGX-1027 was added at the time of stimulation.
Insulinoma cell lines, which die following stimulation with either IL-1β/INF-γ or TNF-α/INF-γ, were used in this study. Specifically, cell lines RIN-m5F and MIN6 were treated with either IL-1β/INF-γ alone or IL-1β/INF-γ/VGX-1027, and TNF-α production, which is a consequence of stimulation with these factors, was measured.

[2] = system: oxazolone-induced hypersensitivity; assay: Oxazolone-induced dermatitis; assay type: in vivo, mice
[3] = system: Thioglycollate-elicited macrophages; assay: TNF-α production of macrophages treated with TLR agonists; assay type: cell-based; details: 10 μg/ml, 48 hours
Protocol: (A) Thioglycollate-elicited macrophages (1×10^6/ml) were stimulated with either LPS (5 μg/ml), zymosan (ZYM, 50 μg/ml), MDP (25 μg/ml), or Poly(I:C) (50 μg/ml) in the presence or absence of VGX-1027 (10 μg/ml). TNF-α was measured 48 hours post treatment. (B) Relative phosphorylations of 1-κBα and p38 were measured at the indicated time points following stimulation with LPS (5 μg/ml). The y-axis is presented as fold change in comparison to the values obtained from LPS-treated cultures alone. * p<0.05.
Thioglycollate-elicited macrophages were treated with multiple TLR agonists for 48 hours. TNF-α production was measured. The following agonists were used to activate the various TLRs.

Oral absorption in dogs = assay type: in vivo
Protocol: (§1) The highest plasma concentrations generally occurred in 1-2 hours. […] The highest level of inhibition was ˜35% for 2C19 at a 30 μM concentration. […] Lastly, VGX-1027 is stable in human liver S9 fractions (with phase 1 and 2 cofactors) with t1/2>90 minutes, which indicates a low likelihood of metabolism in the liver.

[4] = system: undifferentiated CD4 T cells; assay: Proliferation of undifferentiated CD4 T cells; assay type: cell-based
Protocol: (A) Cell viability was measured via the MTT assay after 48 hours of treatment. (B) TNF-α levels were measured 48 hours post LPS (5 μg/ml) stimulation. (C) CD4 T cells were stimulated with either ConA (10 μg/ml) or anti-CD3/CD28 beads (10 μg/ml), and proliferation was measured via 3H-thymidine incorporation.

STAT3 = assay: IL-6 induced STAT3 phosphorylation in CD4+ T cells (Western blot); assay type: cell-based; details: IL-6 20 ng/ml, 10 uM
Protocol: FIG. 17. Western blot (A) and relative densitometric analysis (B) of the levels of phospho-STAT3 in CD4+ T cells after stimulation with IL-6.
In vitro T-cell treatment: Naive, sorted CD4+ T cells were obtained from the University of Pennsylvania School of Medicine, Immunology Clinical Core, cultured in vitro with IL-6 (20 ng/ml) in the presence or absence of VGX1027 (10 uM) for 0, 30 min, 1 hr, 2 hrs and 5 hrs. At the end of the incubation period, cells were lysed for 30 min at 4° C. by using the Nonidet P-40 lysis buffer (Invitrogen) supplemented with a phosphatase inhibitor mixture (PhosSTOP) and a protease inhibitor mixture (Complete) as directed by the manufacturer (Roche Applied Science). Lysates were collected and spun at 10,000 rpm for 5 min at 4° C., and then, 50 ug of proteins were mixed with 2× sample buffer (Invitrogen) for subsequent 4-12% SDS-PAGE electrophoresis. Afterward, proteins were transferred to nitrocellulose using the iBlot Dry Blotting System (Invitrogen), immunodetection was performed with the SNAP i.d. Protein Detection System (Millipore) using specific p-STAT3 and STAT3 monoclonal antibodies (Cell Signaling), and the expressed proteins were visualized with HRP-conjugated goat antimouse IgG using an ECL detection system (Amersham Biosciences, Piscataway, N.J.).

Rising MTD study in mice = details: mouse, in vivo, 1000 mg/kg/day, read-out: Approximate Cmax
Protocol: (Approximate Cmax@ [1000 mg/kg/day] was […]). Based on these studies, 10 mg was determined to be a safe starting dose in the human study.

[5] = system: splenic mononuclear cells (SMNC); assay: Ex vivo proliferation and cytokine synthesis of SMNC from treated mice; assay type: cell-based
Protocol: These experiments were carried out to explore if intraperitoneal (i.p.) or oral administration (p.o.) in mice with VGX-1027 could influence the proliferative response of SMNC and the production of IL-1β, IL-10, TNF-α, IFN-γ and MIF from isolated PM and SMNC. PM and SMNC isolated from mice treated in vivo with VGX-1027 for 7 consecutive days intraperitoneally (0.5 mg/mouse), or orally (2.5 mg/mouse), or isolated from control animals that received VGX-1027 vehicle (Na2HPO4/H2O), or were without any treatment. 24 h after the last VGX-1027 treatment, PM and SMNC were collected for further in vitro stimulation and analysis.

Metabolite monitoring = assay type: in vitro ADME; details: isoxazole ring disruption, single oxidation, single glucuronidation; any species
Protocol: as §1

[6] = elicitation phase: one hour after second oxazolone exposure
[7] = treated during or before the sensitization phase

O=C(O)CC1CC(c2ccccc2)=NO1 (centres unmarked) [VGX-1027, 3-phenyl-4,5-dihydro-5-isoxazoleacetic acid]
TNF-α production ([1]; IL-1β/INF-γ stimulation, both cell types, 48 hours): significantly repressed
cell viability ([1]; IL-1β/INF-γ with co-treatment, 48 hours): over 60%
cell viability with exogenous rTNF-α ([1]; IL-1β/INF-γ/TNF-α): prevented the protective effect
ear thickness [2, 6]: significant decrease
ear weight [2, 6]: not in weight
ear thickness [2, 7]: significantly suppressed
ear weight [2, 7]: significantly suppressed
TNF-α production ([3]; LPS (5 μg/ml)): inhibited
TNF-α production ([3]; MDP (25 μg/ml)): inhibited
TNF-α production ([3]; ZYM (50 μg/ml)): inhibited
TNF-α production ([3]; poly(I:C) (50 μg/ml)): did not affect
oral absorption (Oral absorption in dogs): rapidly absorbed
time of highest plasma concentrations (Oral absorption in dogs): 1 to 2 h
proliferation ([4]; CD3/CD28 stimulation): affected neither
INF-γ production ([4]; ConA stimulation): affected neither
proliferation ([4]; ConA stimulation): affected neither
magnitude of STAT3 phosphorilation (STAT3): overall reduction
time of maximum STAT3 activation after IL-6 (STAT3): 1 h
Cmax (Rising MTD study in mice): ~400 µg/mL
IFN-γ production [5]: normal capacity
IL-1 β production [5]: normal capacity
IL-10 production [5]: normal capacity
MIF expression [5]: normal expression pattern
TNF-α production [5]: normal capacity
capacity to proliferate ([5]; mice treated 7 days): normal capacity
metabolite peaks for the 3 monitored masses (Metabolite monitoring): no metabolite peaks were observed
